# Source: patent US11266624B2, “CRM1 inhibitors reduce primary and acquired resistance of EGFR inhibitors in lung cancer cells” (Texas Tech University System, priority 2018, dated 2022)
# Like-named read-outs stand apart in the source and are kept apart here. Marks after values point to notes of the source that are not given here.
# Experiments:
# A549 [1] = experiment: Analysis of cell cycle by flow cytometry in A549; assay type: cell-based, human; conditions: 48 hrs
# Excerpt: Analysis of cell cycle by flow cytometry. […] Each sample was run in triplicate and each experiment was repeated three times.
# A549GR = experiment: cells
# Excerpt: (§1) Cell lines and reagents. The NSCLC cell lines A549 and H460 were purchased from American Type Culture Collection (ATCC).
# (§2) Cell viability assay. […] Experiments were repeated independently three times.
# (§3) Statistical analyses. […] One-way ANOVA was used to determine the difference in the analytical results of flow cytometry, qRT-PCR, Western bot, wound healing assay, anchorage-independent growth assay, transwell invasion assay, and Bio-Plex multiplex immunoassay among groups followed by a Fisher's LSD test. Differences with p<0.05 were considered statistically significant.
# A549 [2] = experiment: cells
# Excerpt: as §1, §2, §3
# A549GLR = experiment: cells
# Excerpt: as §1, §2, §3
# A549 [3] = conditions: A549, KRAS-mutant NSCLC cell line; cited from earlier work
# [4] = system: snail-transduced primary human mammary epithelial cells (HEMCs); conditions: 24-72 hrs treatment; cited from earlier work
# H358 = H358 (p53 null); read-out: LMB IC50; cited from earlier work
# H460 = experiment: MTT cell viability assay in H460; conditions: 0.5 nM LMB
# Excerpt: as §1, §2, §3
# A549 [5] = experiment: Western blot of EGFR signaling and survival pathways in A549; assay type: cell-based, human
# Experimental: Western blot analyses. […] Relative densitometric digital analysis for bands of targeted proteins was determined using Image J and normalized by the intensity of the housekeeping gene, α-tubulin.
# H522 = H522 (p53-mutant); read-out: LMB IC50; cited from earlier work
# A549 [6] = conditions: A549 (p53 wide type), 48 hrs; read-out: LMB IC50; cited from earlier work
# [7] = single therapeutic agent; cited from earlier work
# [8] = system: NSCLC cell lines (A549, H522, and H358) and BEAS-2B; conditions: A549, H522, H358 vs BEAS-2B; cited from earlier work
# NSCLC cells [9] = conditions: cited from earlier work
# NSCLC cells [10] = conditions: cited from earlier work; remark: listed apart in the source
# [11] = 12 μM gefitinib (alone or + 0.5 nM LMB)
# [12] = 24 μM gefitinib (alone or + 0.5 nM LMB)
# [13] = Homo sapiens, A549, read-out: IC50 of afatinib
compound,measurement,setting,value
COc1cc2ncnc(Nc3ccc(F)c(Cl)c3)c2cc1OCCCN1CCOCC1 [gefitinib],Cell cycle (%) G0/G1,A549 [1]; [11],68.0 ± 2.9 ^a %
same,Cell cycle (%) G2/M,A549 [1]; [11],19.9 ± 2.2 ^a %
same,Cell cycle (%) Pre-G1,A549 [1]; [11],2.1 ± 0.4 ^a %
same,Cell cycle (%) S,A549 [1]; [11],9.7 ± 2.4 ^a %
same,Cell cycle (%) G0/G1,A549 [1]; [12],84.0 ± 0.9 ^b %
same,Cell cycle (%) G2/M,A549 [1]; [12],7.9 ± 0.6 ^b %
same,Cell cycle (%) Pre-G1,A549 [1]; [12],4.0 ± 1.3 ^b %
same,Cell cycle (%) S,A549 [1]; [12],3.4 ± 0.3 ^b %
CN(C)C/C=C/C(=O)Nc1cc2c(Nc3ccc(F)c(Cl)c3)ncnc2cc1O[C@H]1CCOC1 [afatinib],IC50,A549GR; [13],20 ± 2.7 µM
same,IC50,A549 [2]; [13],6 ± 1.2 µM
same,IC50,A549GLR; [13],8 ± 1.5 µM
"O=C(/C=C\n1cnc(-c2cc(C(F)(F)F)cc(C(F)(F)F)c2)n1)NNc1cnccn1 [KPT-330, Selinexor]",Response of A549 to treatment,A549 [3],not responsive
same,Effect on EMT,[4],reverse EMT
"CCC(=C/[C@H](C)C/C=C/C(C)=C/[C@@H](C)C(=O)[C@@H](C)[C@H](O)[C@@H](C)C/C(C)=C/C(=O)O)/C=C/[C@@H]1OC(=O)C=C[C@@H]1C [LMB, Leptomycin B]",Cytotoxic effect (cell viability),A549GR,96±3 % of control
same,Cytotoxic effect (cell viability),A549 [2],89±4 % of control
same,Cytotoxic effect (cell viability),A549GLR,88±5 % of control
same,IC50,H358,0.0005 µM
same,Cytotoxic effect (cell viability),H460,92±5 % of control
same,Relative protein expression level of Akt,"A549 [5]; 0.5 nM LMB alone, 48 hrs, A549, control 100.0±0",86±2
same,p21 expression,"A549 [5]; A549, 48 hrs, LMB vs control, gefitinib+LMB vs gefitinib alone",dramatically increased
same,IC50,H522,0.0057 µM
same,Cell cycle (%) G0/G1,A549 [1]; 0.5 nM LMB alone,57.9 ± 3.1 ^b %
same,Cell cycle (%) G2/M,A549 [1]; 0.5 nM LMB alone,24.4 ± 0.6 ^b %
same,Cell cycle (%) Pre-G1,A549 [1]; 0.5 nM LMB alone,13.5 ± 2.7 ^b %
same,Cell cycle (%) S,A549 [1]; 0.5 nM LMB alone,3.6 ± 1.2 ^b %
same,IC50,A549 [6],0.0131 µM
same,Toxicities in phase I trial,[7],gastrointestinal toxicities like malaise and anorexia
same,Effect on EMT,[4],reverse EMT
same,"Cell growth inhibition, cancer vs normal cells",[8],"remarkable cell growth inhibition in NSCLC cell lines (A549, H522, and H358) but not normal human lung epithelial cells (BEAS-2B)"
COc1cc(-c2ncn(/C=C\C(=O)OC(C)C)n2)cc(C(F)(F)F)c1 [KPT-185],Response of A549 to treatment,A549 [3],not responsive
same,Cell cycle arrest,NSCLC cells [9],arrested NSCLC cells in the G1 phase
same,Synergistic cytotoxic effects with EGFR TKIs,NSCLC cells [10],no synergistic cytotoxic effects
same,Effect on EMT,[4],reverse EMT
